{"source": "patent US20140079717A1", "about": "“Compositions and Methods to Prevent Cell Transformation and Cancer Metastasis” (CORNELL UNIVERSITY, priority 2011, published 2014)", "assay": "In vitro liposome fractionation assay", "format": "binding", "settings": "5 μg protein, 15 minute incubation, centrifugation, SDS-PAGE", "protocol": "FIG. 51. Recombinant tTG can associate with lipid vesicles lacking any protein content. Synthetic liposomes were prepared by extrusion and then equal amounts of this preparation were combined with either 5 μg recombinant tTG (tTG WT) or 5 μg bovine serum albumin (BSA). After a 15 minute incubation, the liposomes were pelleted by centrifugation, and the resulting supernatant (Sup) and liposome (Pellet) fractions were resolved by SDS-PAGE. The gel was then stained with Quick Blue to detect the proteins. A lane containing recombinant tTG (Rec. tTG WT) was included as a standard.\nTo obtain the results depicted in FIG. 51, the following procedures were used. In vitro liposome fractionation assays—Synthetic liposomes were prepared from a lipid mixture containing 35% phosphatidylethanolamine, 25% phosphatidylserine, 5% phosphatidylinositol, and 35% cholesterol re-suspended in TBSM buffer (20 mM Tris, pH 7.5, 150 mM NaCl, and 2 mM MgCl2). The lipids were extruded through an 8 micron filter, pelleted by centrifugation at 13,000 rpm for 15 minutes, and re-suspended in TBSM buffer. Equal amounts of the lipid preparation were then incubated with either recombinant wild-type tTG or BSA for 15 minutes, followed by centrifugation at 13,000 rpm for 10 minutes at room temperature. […]", "data": [{"substance": "bovine serum albumin [BSA]", "values": [{"measurement": "protein pelleted with synthetic liposomes", "value": "only weakly pelleted"}]}]}
